Measured values: ChEMBL document CHEMBL3885861, “Open TG-GATES”

Organism: Rattus norvegicus
Test: Open TG-GATES - Regimen: Single
Format: toxicity, organism-based, Sprague-Dawley
Set-up: regimen Single, gender Male, age 6 weeks
Settings: in vivo, po, 30 mg/kg, route gavage, dose level Middle; for APTT / Bas / Eos / Fbg / Hb / Ht / Lym / MCH / MCHC / MCV / Mono / Neu / PT / Plat / RBC / Ret / WBC: tissue Blood; for KIDNEY_L / KIDNEY_R / KIDNEY_TOTAL: tissue Kidney; for LIVER: tissue Liver; for A/G / ALP / ALT / AST / BUN / CRE / Ca / Cl / DBIL / GLC / IP / K / LDH / Na / PL / RALB / TBIL / TC / TG / TP / gamma-GTP: tissue Plasma

## OCCOCCN1CCN(C(c2ccccc2)c2ccc(Cl)cc2)CC1 (stereo unspecified) [HYDROXYZINE]
9 h
  TERMINAL_BW: 190.8 g
  APTT: 15.9 s
  Bas: 0%
  Eos: 0.8%
  Fbg: 281.8 mg/dL
  Hb: 12.9 g/dL
  Ht: 40%
  Lym: 79%
  MCH: 21.7 pg
  MCHC: 32.3%
  MCV: 67.1 fL
  Mono: 2.6%
  Neu: 17.2%
  PT: 15.4 s
  Plat: 104.8 x10_4/uL
  RBC: 595.6 x10_4/ul
  Ret: 8.8%
  WBC: 60.3 x10_2/uL
  KIDNEY_L: 0.9 g
  KIDNEY_R: 0.9 g
  KIDNEY_TOTAL: 1.7 g
  LIVER: 8.2 g
  A/G: 0.9
  ALP: 1266.8 IU/L
  ALT: 38 IU/L
  AST: 70.2 IU/L
  BUN: 9 mg/dL
  CRE: 0.2 mg/dL
  Ca: 10.7 mg/dL
  Cl: 107 meq/L
  DBIL: 0.01 mg/dL
  GLC: 171.6 mg/dL
  IP: 10.2 mg/dL
  K: 4 meq/L
  LDH: 83.6 IU/L
  Na: 142.8 meq/L
  PL: 127.8 mg/dL
  RALB: 2.5 g/dL
  TBIL: 0.06 mg/dL
  TC: 67.6 mg/dL
  TG: 43 mg/dL
  TP: 5.4 g/dL
  gamma-GTP: 1 IU/L
24 h
  TERMINAL_BW: 210 g
  APTT: 16.7 s
  Bas: 0.2%
  Eos: 0.8%
  Fbg: 268 mg/dL
  Hb: 12.7 g/dL
  Ht: 39.4%
  Lym: 74.6%
  MCH: 21.3 pg
  MCHC: 32.3%
  MCV: 65.9 fL
  Mono: 3.8%
  Neu: 20.4%
  PT: 16.1 s
  Plat: 122 x10_4/uL
  RBC: 599.2 x10_4/ul
  Ret: 8%
  WBC: 75.2 x10_2/uL
  KIDNEY_L: 0.9 g
  KIDNEY_R: 0.9 g
  KIDNEY_TOTAL: 1.8 g
  LIVER: 10.1 g
  A/G: 0.8
  ALP: 1659 IU/L
  ALT: 45.8 IU/L
  AST: 68.6 IU/L
  BUN: 14 mg/dL
  CRE: 0.2 mg/dL
  Ca: 11.2 mg/dL
  Cl: 106.6 meq/L
  DBIL: 0.018 mg/dL
  GLC: 188.2 mg/dL
  IP: 7.9 mg/dL
  K: 4.1 meq/L
  LDH: 75.2 IU/L
  Na: 142.8 meq/L
  PL: 153.4 mg/dL
  RALB: 2.6 g/dL
  TBIL: 0.054 mg/dL
  TC: 79.2 mg/dL
  TG: 82 mg/dL
  TP: 5.6 g/dL
  gamma-GTP: 1 IU/L
